Reference: patent US20250188113A1, “HIGH PURITY NON-ANIMAL DERIVED TUDCA” (SANDHILL ONE, LLC, priority 2021, published 2025)

What was measured:
[1] = DVS mass change (moisture sorption); assay type: physicochemical
[2] = Crystallinity of Pattern L upon drying (XRPD); assay type: physicochemical; conditions: dried in a 50° C. oven under −29.5 in Hg for 3 h
Method: Pattern L was prepared by the slurry method. In this experiment, 205.4 mg of solid commercial-grade plant derived TUDCA was mixed with 2.2 mL of IPAc:MeOH (7.3:2.9 vol.) in a 4 mL vial at 50° C. The mixture was sonicated for 1 h and stirred for 15 min at 400 rpm, after which it was filtered and analyzed by XRPD. […] As this pattern was a possible hydrate, it was placed in a humidity chamber at 55% RH to see if the crystallinity would increase. The yield was 114.6 mg […].

Compound | DVS mass change 5-95% RH (wt. %) [1] [wt. %] | other results
CC(C)NC(C)C.C[C@H](CCC(=O)O)[C@H]1CC[C@H]2[C@@H]3C(=O)C[C@@H]4CC(=O)CC[C@]4(C)[C@H]3CC[C@]12C [Diisopropylamine salt, diisopropylamine salt of 3,7-DKCA] | 2.53 | 
C[C@H](CCC(=O)O)[C@H]1CC[C@H]2[C@@H]3C(=O)C[C@@H]4CC(=O)CC[C@]4(C)[C@H]3CC[C@]12C.NCCN [Ethylenediamine salt, ethylenediamine salt of 3,7-DKCA] | 19.60 | 
CC(CCC(=O)NCCS(=O)(=O)O)C1CCC2C3C(O)CC4CC(O)CCC4(C)C3CCC12C.N=C(N)NCCCC(N)C(=O)O [Pattern 1-A (L-arginine), L-arginine TUDCA] |  | DVS mass change 2-80% RH (wt. %) ([1]; 2-80% RH): 2.91 wt. %
C[C@H](CCC(=O)NCCS(=O)(=O)O)[C@H]1CC[C@H]2[C@@H]3[C@@H](O)C[C@@H]4C[C@H](O)CC[C@]4(C)[C@H]3CC[C@]12C [Pattern A, Tauroursodeoxycholic acid] |  | DVS mass change 2-95% RH (wt. %) ([1]; 2-95% RH): 0.96 wt. %
C[C@H](CCC(=O)NCCS(=O)(=O)O)[C@H]1CC[C@H]2[C@@H]3[C@@H](O)C[C@@H]4C[C@H](O)CC[C@]4(C)[C@H]3CC[C@]12C [Pattern L, Tauroursodeoxycholic acid] |  | Crystallinity upon drying [2]: decrease
CC(C)(C)N.C[C@H](CCC(=O)O)[C@H]1CC[C@H]2[C@@H]3C(=O)C[C@@H]4CC(=O)CC[C@]4(C)[C@H]3CC[C@]12C [tert-Butylamine salt, tert-butylamine salt of 3,7-DKCA] | 10.89 | 
